Values of other authors as cited in US9717712B2, “Combinations comprising tricyclohexadecahexaene derivatives for use in the treatment of hepatitis C virus” (BRISTOL-MYERS SQUIBB COMPANY, priority 2013, dated 2017).
Where two headings read alike, the source gives them in different places.

Tested on: HCV genotype 1a variant with glutamine 30 changed to glutamate in the NS5A protein (Q30E)
Settings: genotype 1a Q30E replicon
[1] = single agent, read-out: EC50, compound titrated singly

Row | Structure (SMILES) | reciprocal synergistic inhibitory effect for the combination (BMS-790052 titrated with P-55 fixed at 200 nM) | EC50 (P-55 fixed at 200 nM, read-out: EC50 of BMS-790052 in the presence of a fixed amount of P-55) | EC50 [1] | EC50 (BMS-790052 fixed at 200 nM, read-out: EC50 of P-55 in the presence of a fixed amount of BMS-790052) | synergistic inhibitory effect for the combination (P-55 titrated with BMS-790052 fixed at 200 nM)
1 | COC(=O)N[C@H](C(=O)N1CCC[C@H]1c1nc(-c2ccc(-c3ccc(-c4c[nH]c([C@@H]5CCCN5C(=O)[C@@H](NC(=O)OC)C(C)C)n4)cc3)cc2)c[nH]1)C(C)C [BMS-790052] | ~100 fold | ~2 nM | ~200 nM | – | –
2 | CC(C)CC(=O)N[C@H](c1ncc(-c2ccc(-c3ccc(-c4cnc([C@@H](NC(=O)CC(C)C)C(C)C)[nH]4)cc3)cc2)[nH]1)C(C)C [Compound P-55] | – | – | > 200 nM | ~2 nM | > 100 fold
